These results are taken from US20160346304A1, “AGENT FOR SUSTAINING SATIETY AND METHOD FOR SUSTAINING SATIETY” (JICHI MEDICAL UNIVERSITY, priority 2014, published 2016).

Data set [1] has as its system C57BL/6J male mice. As to the kind of experiment: Food intake in fasted mice after oral gavage or intraperitoneal administration. Format: in vivo. As to conditions: for cumulative food intake (energy (kcal)): comparative example, incl. energy of administered sugar; for cumulative food intake (relative value (%)): mice fasted 16 hours. Here is the method: As the experimental animal, C57BL/6J male mice were used. The mice were acclimated to the environment by preliminary rearing for 1 week or more in individual cages. After fasting the mice for 16 hours from 18:00 p.m. on the previous day of the experiment, each test solution was orally administered by gavage or intraperitoneally administered to the mice. In each administration route, physiological saline (10 mL/kg) was administered in a control group, and D-psicose (0.3 g/kg, 1 g/kg, or 3 g/kg) was administered in a test group. The concentration of the respective test solutions at this time was […], 10%, and 30%, respectively. Each solution was administered at 9:45 a.m., and from 10:00 a.m., the mice were allowed free access to CE-2 feed (a standard mouse feed with a good nutritional balance manufactured by CLEA Japan, Inc.), and the food intake was measured over time after 0.5 hours, 1 hour, 2 hours, 3 hours, 6 hours, and 24 hours.
Incidentally, as a comparative example, an experiment of oral administration by gavage of D-glucose (1 g/kg and 3 g/kg), which has a sweetness equivalent to D-psicose and has a similar structure, but is metabolized to contribute to energy production, was performed in the same manner.
The results obtained by plotting the elapsed time after administration on the abscissa, and the cumulative food intake (relative value (%)) at each elapsed time on the ordinate are shown in FIG. 1 (oral administration by gavage) and FIG. 2 (intraperitoneal administration). Incidentally, the cumulative food intake (relative value (%)) is expressed as the ratio of the cumulative food intake in each group with the average food intake in the physiological saline group at each time in each experiment performed taken as 100%. The obtained results are expressed as a mean and a standard error. A statistical test was performed by a one-way analysis of variance, and if a significant difference was detected, a Dunnett's test in comparison with the control group was performed. The significance level for the test was set to less than 5% on both sides, and the data was marked with * when the P value was less than 5%, and the data was marked with ** when the P value was less than 1%.
The cumulative food intake (energy (kcal)) after D-glucose (1 g/kg and 3 g/kg) was orally administered by gavage in the comparative example is shown in FIG. 3. […] The notation of the results and the statistical analysis is the same as in FIGS. 1 and 2.

In another data set the test system is c-Fos. As to the kind of experiment: c-Fos expression (marker of neuronal activation) by immunostaining in nodose ganglion and medullary nucleus tractus solitarius. Format: in vivo, mice. As to conditions: oral gavage 1 g/kg, fasted overnight, compared with physiological saline group. As to the method: The activation of “vagal afferent nuron” and “medullary nucleus tractus solitarius”, which is a projection site of the vagal afferent nerves, caused by the oral administration of D-psicose was analyzed based on the expression level of c-Fos, which is a marker of neuronal activation, using an immunostaining method. The c-Fos is a kind of immediate early gene and is an intranuclear protein whose expression level increases with the activation of a nerve and can be utilized as a marker of neuronal activation. The cell bodies of the vagal afferent neurons are all localized in the nodose ganglion, and these vagal afferent neurons are bipolar which project to the peripheral side (many internal organs such as heart, lung, gastrointestinal tract, pancreas, and liver) and the central side (medullary nucleus tractus solitarius).
As the experimental animal, C57BL/6J male mice were used. The mice were acclimated to the environment by preliminary rearing and handling for 1 week or more in individual cages. After fasting the mice overnight, D-psicose (1 g/kg) was orally administered by gavage. […]
The results of the expression level of c-Fos in the nodose ganglion and in the medullary nucleus tractus solitarius in the mice after orally administering D-psicose are shown in FIG. 5. The obtained results are expressed as a mean and a standard error. […]

For data set [2] the following is noted: cited from earlier work.
The test system of data set [3] is C57BL/6J male mice. As to the kind of experiment: Conditioned taste aversion test (preference to saccharin solution). Format: in vivo. As to conditions: conditioning on day 6, test on day 8. Here is the method:
As the experimental animal, C57BL/6J male mice which were the same as used in the previous experiment were used. The mice reared in individual cages were given two bottles of water only for 2 hours in a period between 10:00 a.m. and 12:00 p.m. for 5 days, whereby the mice were acclimated to the water restriction schedule. On day 6, a 0.15% saccharin solution was presented for 30 minutes, and thereafter, lithium chloride (3 mmol/kg) was intraperitoneally administered, whereby the mice were made to acquire an aversion to the taste of the saccharin solution (conditioning). In the same manner, a control group in which physiological saline (10 mL/kg) was orally administered and a test group in which D-psicose (1 g/kg or 3 g/kg) was orally administered were prepared. On day 7 serving as a rest day, the above-described water restriction schedule was performed. On day 8 serving as a test day, two bottles, one bottle containing a 0.15% saccharin solution and the other bottle containing water, were simultaneously presented for 30 minutes, and the ratio of preference to the saccharin solution (the intake amount of saccharin/the total intake amount from the two bottles) was determined.
The ratio of preference to the saccharin solution after making the mice to acquire a conditioned taste aversion is shown in FIG. 4. The obtained results are expressed as a mean and a standard error. A statistical test was performed by a one-way analysis of variance, and a Dunnett's test in comparison with the control group was performed. The data was marked with ** when the P value was less than 1%.

The test system of data set [4] is C57BL/6J male mice. As to the kind of experiment: Liquid food intake in sham-operated and subdiaphragmatic vagotomized mice. Particulars: oral gavage 1 g/kg. It counts as in vivo. Here is the method:
As the experimental animal, C57BL/6J male mice were used. The mice were divided into the following two groups: a sham-operated group consisting of sham-operated mice; and a subdiaphragmatic vagotomized group consisting of subdiaphragmatic vagotomized mice, and were subjected to the operation, respectively. After a recovery period of one week, the mice were fasted overnight (for 16 hours) on the previous day of the experiment of food intake. Thereafter, each test solution was orally administered by gavage to the mice, and the intake of a liquid food (milk for babies and toddlers) after the administration was examined. As the respective test solutions administered, in both of the sham-operated group and the subdiaphragmatic vagotomized group, physiological saline (10 mL/kg) or D-psicose (1 g/kg) was orally administered by gavage. The concentration of the D-psicose solution at this time was 10%. Each test solution was orally administered by gavage to mice at 9:45 a.m., and from 10:00 a.m., the mice were allowed free access to the liquid food, and the food intake was measured over time.
The cumulative liquid food intake after orally administering D-psicose (1 g/kg) by gavage to the subdiaphragmatic vagotomized mice and the sham-operated mice is shown in FIG. 6. […] The obtained results are expressed as a mean and a standard error. […]

Data set [5] is described as follows: Onset and duration of satiety after ingestion of the agent. Format: in vivo.
For another data set, the system named is healthy subjects. The data set is described as follows: Satiety, hunger and appetite questionnaire (VAS) after breakfast in healthy human subjects. It counts as in vivo. Particulars: humans. As to the method:
Therefore, in this test, after fasting the subjects from 12 hours before the test day, the subjects were made to ingest either of the test solutions (150 mL) prepared to have the same degree of sweetness by adding 5 g of D-psicose or 10 mg of aspartame which is a high intensity sweetener as a control food. Incidentally, the concentration of the respective test solutions was 3.3% in the D-psicose group and 0.005% in the aspartame group. Further, the ingestion amount of D-psicose of the subjects was 0.071 to 0.096 g (mean: 0.085 g) per kilogram of body weight. After the ingestion, breakfast (sandwich, yogurt, and juice) (total calories: 405 kcal, proteins: 10.2%, fats: 28.4%, carbohydrates: 61.4%) was ingested in 10 minutes. During the test, the subjects were fasted except that they were allowed to free access to only prescribed water.
The questionnaire with respect to appetite was filled out by the evaluation using the VAS (Visual Analog Scale) method and was prepared according to NPL 11. As the questionnaire items, the following three items: satiety, hunger, and appetite were set. In each item, the subjects were made to put a mark on a line with a length of 100 mm at a position most close to the state at that moment, then, the length from the left end to the position where the mark was put was measured with a ruler and converted into a numerical value. The obtained results are expressed as a mean and a standard error. A statistical test was performed using an unpaired Student's t test, and the data was marked with * when the P value was less than 5%, the data was marked with ** when the P value was less than 1%, and the data was marked with *** when the P value was less than 0.1%.

For data set [6] the following is noted: as compared with D-glucose and D-fructose (NPL 9); cited from earlier work.
The mark [7] stands for this setting: oral administration by gavage, 1 g/kg.
Where [8] appears, read: oral administration by gavage, 3 g/kg.
Setting [9] is: 5 g in 150 mL before breakfast, in comparison with control food (aspartame).

The structures appear in SMILES notation.

In the case of `O=C[C@H](O)[C@@H](O)[C@H](O)[C@H](O)CO` [D-glucose, reference compound], the “cumulative food intake (energy (kcal))” value in the data set on C57BL/6J male mice [1] (setting [7]) and with C57BL/6J male mice [1] (setting [8]) was “did not affect food intake” each time.
For `O=C(CO)[C@H](O)[C@H](O)[C@H](O)CO` [D-psicose], the “expression level of c-Fos in the medullary nucleus tractus solitarius” value in the data set with c-Fos is listed as “significantly increased”. For the same compound, the “expression level of c-Fos in the nodose ganglion” value in the data set with c-Fos is listed as “significantly increased”. For the same compound, the “increase in blood glucose level after eating” value in data set [2] (humans, 5 g ingested along with a regular meal (NPL 6, NPL 7)) is “suppressed”. Further, the blood glucose level entry in data set [2] (ingested alone (NPL 7)) is “does not increase”. Moreover, the “blood glucose level after eating” value in data set [2] (prediabetic adults, 5 g with breakfast versus 10 mg aspartame, crossover (NPL 6)) is reported as “significant decrease”. For the same compound, the “ratio of preference to the saccharin solution” value in the data set on C57BL/6J male mice [3] (setting [7]) and in the data set with C57BL/6J male mice [3] (setting [8]) was “did not affect the preference to the saccharin solution” in each case. In addition, the “cumulative liquid food intake (g)” value in the data set with C57BL/6J male mice [4] (sham-operated group, up to 3 hours after administration) is “significantly suppressed”; in the data set with C57BL/6J male mice [4] (subdiaphragmatic vagotomized group), “the effect was all lost”. Further, the “time until return to the state before the ingestion” value in data set [5] is 24 h. The “time until the effect is exhibited after the ingestion” value in data set [5] is listed as “about 15 minutes”. Also, in the data set with healthy subjects (5 g before breakfast, from immediately after breakfast up to after 4 hours), the “hunger (VAS)” value was “significantly suppressed”. Further, in the data set on healthy subjects (setting [9]), the “duration of effect of suppressing appetite (VAS)” value is at least 4 h. Further, the “duration of effect of suppressing hunger (VAS)” value in the data set on healthy subjects (setting [9]) was at least 4 h. For the same compound, in the data set on healthy subjects (setting [9]), the “satiety after eating (VAS)” value is recorded as “sustained”. In data set [6], the “absorption in the small intestine” value was “slower”. Also, the “cumulative food intake (relative value (%))” value in the data set with C57BL/6J male mice [1] (intraperitoneal administration, 1 g/kg) was “no effect on food intake”; in the data set with C57BL/6J male mice [1] (intraperitoneal administration, 3 g/kg, 0.5 to 6 hours after administration) it was “significantly decreased”; in the data set with C57BL/6J male mice [1] (oral administration by gavage, 0.3 g/kg, any time zone after administration), “a change in food intake was not observed”; with C57BL/6J male mice [1] (oral administration by gavage, 1 g/kg, 0.5 to 6 hours after administration), “significantly decreased”; in the data set with C57BL/6J male mice [1] (oral administration by gavage, 3 g/kg, 0.5 to 6 hours after administration), “significantly decreased”. Further, in the data set on C57BL/6J male mice [1] (oral administration by gavage, mice), the “effective amount to reduce food intake in mice” value was 1 g/kg.
With `[Cl-].[Li+]` [lithium chloride, reference compound], the “ratio of preference to the saccharin solution” value with C57BL/6J male mice [3] (intraperitoneal, 3 mmol/kg) is listed as “significantly decreased”.
